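Compound exposure: 48 hours, 5 concentrations, 96-well plates. The concentration for 50% growth inhibition is given as GI50.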 Activity calls are given as the source filed them. Cut-off read from the data, not from the text of the source: active = GI50 up to about 1.1 µM and inactive = higher.

Some test systems named below: HOP-62; SK-MEL-28; NCI-H23; MDA-N; LOX IMVI; IGROV-1; HCT-15; SW-620; SN12C; HL-60; HT-29; SF-268; NCI-H226; RXF 393; SK-MEL-5; CCRF-CEM; OVCAR-4; Malme-3M.
Test in all cases: inhibition of tumour cell growth, NCI panel, 48 h

Turning to `Oc1ccccc1CNCc1nc2ccccc2[nH]1`, the GI50 with HOP-62 is 69 µM (inactive); with SK-MEL-28 it was > 100 µM (inactive); in the experiment with NCI-H23, > 100 µM (inactive); with MDA-N it was > 100 µM (inactive); with LOX IMVI it was 57 µM (inactive); in the experiment with IGROV-1, > 100 µM (inactive). For the same compound, the GI50 with HCT-15 was 3.01 µM; in the experiment with SW-620, 55.3 µM (inactive); in the experiment on SN12C, > 100 µM (inactive); with HL-60, 40.9 µM (inactive); in the experiment with HT-29 it was 0.495 µM (active); in the experiment on SF-268, > 100 µM (inactive). Further, the GI50 is 20.9 µM (inactive) in the experiment with NCI-H226; 75 µM (inactive) with RXF 393; 22.4 µM (inactive) in the experiment with SK-MEL-5; 29 µM (inactive) in the experiment with CCRF-CEM; > 100 µM (inactive) in the experiment on OVCAR-4.
With `O=C1CC(c2ccc(Cl)cc2)C2(C(=O)NC(=S)NC2=O)C(c2ccc(Cl)cc2)C1` (configuration not stated), the GI50 with HOP-62 is 26.8 µM (inactive); with SK-MEL-28, 16.1 µM (inactive); in the experiment with Malme-3M, 21.4 µM (inactive); in the experiment on NCI-H23, 18.8 µM (inactive); with MDA-N it was 17.2 µM (inactive); in the experiment on LOX IMVI, 28.3 µM (inactive). Besides, the GI50 was 23.7 µM in the experiment with HCT-15; 21.5 µM (inactive) in the experiment with SW-620; 18.2 µM (inactive) in the experiment with SN12C; 20.8 µM (inactive) in the experiment with HL-60; 16.9 µM (inactive) in the experiment on HT-29; 16.2 µM (inactive) in the experiment on SF-268. Also, the GI50 is 21.7 µM (inactive) in the experiment with NCI-H226; 14.5 µM (inactive) with RXF 393; 17 µM (inactive) in the experiment with SK-MEL-5; 24.2 µM (inactive) with CCRF-CEM; 17.5 µM (inactive) in the experiment on OVCAR-4.
`COc1ccccc1N1CCN(Cn2c(=O)oc3cccnc32)CC1`: the GI50 in the experiment on HOP-62, in the experiment on SK-MEL-28, in the experiment with Malme-3M, in the experiment on NCI-H23, in the experiment with MDA-N and in the experiment on LOX IMVI was > 100 µM (inactive) each time. The GI50 is > 100 µM (inactive) with IGROV-1; above 100 µM with HCT-15; 36.4 µM (inactive) in the experiment on SW-620; > 100 µM (inactive) in the experiment with HL-60; > 100 µM (inactive) in the experiment on HT-29; > 100 µM (inactive) in the experiment on SF-268. The GI50 was > 100 µM (inactive) with RXF 393, > 100 µM (inactive) with SK-MEL-5, 66.7 µM (inactive) in the experiment on CCRF-CEM and > 100 µM (inactive) in the experiment with OVCAR-4.
As for `O=[N+]([O-])c1ccc(Cl)c2c([N+](=O)[O-])cccc12`, the GI50 was > 10 µM (inactive) in the experiment with HOP-62; 7.93 µM (inactive) with SK-MEL-28; 5.82 µM (inactive) in the experiment with Malme-3M; 9.27 µM (inactive) with NCI-H23; 2.18 µM (inactive) in the experiment on MDA-N; 3.71 µM (inactive) in the experiment with LOX IMVI. For the same compound, the GI50 in the experiment with IGROV-1 is 8.02 µM (inactive); in the experiment on HCT-15, 2.77 µM; in the experiment on SW-620, 2.91 µM (inactive); in the experiment on SN12C, 4.56 µM (inactive); in the experiment with HL-60, 2.48 µM (inactive); in the experiment with HT-29 it was 3.26 µM (inactive). Moreover, the GI50 was 3.87 µM (inactive) in the experiment with SF-268; > 10 µM (inactive) in the experiment with RXF 393; 2.33 µM (inactive) with SK-MEL-5; 2.36 µM (inactive) with CCRF-CEM; 6.22 µM (inactive) with OVCAR-4.
In the case of `Clc1ccccc1/C=C\C1(c2ccccc2)OCCO1`, the GI50 with HOP-62 was 22.3 µM (inactive); in the experiment on SK-MEL-28, 21.1 µM (inactive); with NCI-H23 it was 10.2 µM (inactive); in the experiment with MDA-N, 15.6 µM (inactive); in the experiment on LOX IMVI, 5.36 µM (inactive); in the experiment on IGROV-1 it was 14.2 µM (inactive). The GI50 is 12.6 µM with HCT-15; 16.1 µM (inactive) with SW-620; 18.1 µM (inactive) in the experiment with SN12C; 24.8 µM (inactive) in the experiment on HL-60; 15.8 µM (inactive) in the experiment on HT-29; 13.1 µM (inactive) with SF-268. In addition, the GI50 in the experiment with NCI-H226 was 27.1 µM (inactive); in the experiment with RXF 393 it was 19.1 µM (inactive); with SK-MEL-5 it was 19.8 µM (inactive); in the experiment on CCRF-CEM, 19.7 µM (inactive); with OVCAR-4, 18 µM (inactive).
Consider `CCOC(=O)CSc1[nH]c2nc(C)nc(Cl)c2c1C#N`, for which the GI50 in the experiment on HOP-62, in the experiment on SK-MEL-28, with Malme-3M, with NCI-H23, in the experiment on MDA-N and in the experiment with LOX IMVI was > 10 µM (inactive) each time. Also, the GI50 was > 10 µM (inactive) in the experiment with IGROV-1; above 10 µM in the experiment on HCT-15; > 10 µM (inactive) in the experiment on SW-620; > 10 µM (inactive) in the experiment on SN12C; > 10 µM (inactive) with HL-60; > 10 µM (inactive) in the experiment with HT-29. For the same compound, the GI50 in the experiment on SF-268, in the experiment on RXF 393, in the experiment on SK-MEL-5, in the experiment on CCRF-CEM and in the experiment with OVCAR-4 was > 10 µM (inactive) each time.
Regarding `CCSC12OC3(CCCCCN3C1=O)C1C(=O)N(c3ccccc3)C(=O)C12` (configuration not stated), the GI50 with SK-MEL-28, in the experiment with Malme-3M, in the experiment on NCI-H23, in the experiment on MDA-N, with LOX IMVI and in the experiment with IGROV-1 was > 100 µM (inactive) throughout. Besides, the GI50 was above 100 µM in the experiment with HCT-15; > 100 µM (inactive) in the experiment on SW-620; > 100 µM (inactive) in the experiment with SN12C; > 100 µM (inactive) in the experiment with HL-60; > 100 µM (inactive) in the experiment on HT-29; > 100 µM (inactive) with SF-268. For the same compound, the GI50 in the experiment with NCI-H226, in the experiment on RXF 393, with SK-MEL-5, with CCRF-CEM and with OVCAR-4 was > 100 µM (inactive) each time.
As for `COc1ccc2nccc(SCC(=O)O)c2c1`, the GI50 with HOP-62, in the experiment on SK-MEL-28, in the experiment with NCI-H23, in the experiment with MDA-N, with LOX IMVI and with IGROV-1 was > 100 µM (inactive) each time. Moreover, the GI50 is above 100 µM in the experiment on HCT-15; > 100 µM (inactive) in the experiment with SW-620; > 100 µM (inactive) with SN12C; > 100 µM (inactive) in the experiment on HL-60; > 100 µM (inactive) in the experiment on HT-29; > 100 µM (inactive) with SF-268. Moreover, the GI50 in the experiment with NCI-H226, with RXF 393, in the experiment with SK-MEL-5, in the experiment with CCRF-CEM and in the experiment with OVCAR-4 was > 100 µM (inactive) each time.
On to `CN1N=C(c2ccncc2)OC1c1ccccc1F` (configuration not stated), for which the GI50 in the experiment on HOP-62, with SK-MEL-28, in the experiment with NCI-H23, with MDA-N, in the experiment on LOX IMVI and with IGROV-1 was > 100 µM (inactive) each time. Also, the GI50 in the experiment on HCT-15 was above 100 µM; in the experiment on SW-620, > 100 µM (inactive); in the experiment on SN12C it was > 100 µM (inactive); in the experiment with HL-60, > 100 µM (inactive); with HT-29 it was > 100 µM (inactive); in the experiment on SF-268, > 100 µM (inactive). Moreover, the GI50 was 73.1 µM (inactive) in the experiment with NCI-H226; > 100 µM (inactive) with RXF 393; > 100 µM (inactive) with SK-MEL-5; > 100 µM (inactive) in the experiment on CCRF-CEM; > 100 µM (inactive) with OVCAR-4.
Take `CC(C)C1OC(N)=C(C#N)C1(C#N)C#N` (configuration not stated): the GI50 was 44.4 µM (inactive) in the experiment with HOP-62; > 100 µM (inactive) in the experiment on Malme-3M; 33.3 µM (inactive) with NCI-H23; 38.2 µM (inactive) with MDA-N; 28.1 µM (inactive) in the experiment on LOX IMVI; 51.4 µM (inactive) in the experiment on IGROV-1. The GI50 in the experiment on HCT-15 was above 10 µM; in the experiment with SW-620, 14.3 µM (inactive); in the experiment on SN12C it was 69.7 µM (inactive); with HL-60 it was 5.58 µM (inactive); with HT-29 it was 38.1 µM (inactive); with SF-268 it was 44.2 µM (inactive). The GI50 is > 100 µM (inactive) with NCI-H226, 44.7 µM (inactive) in the experiment with RXF 393, 33.3 µM (inactive) in the experiment with SK-MEL-5 and 10.9 µM (inactive) in the experiment on CCRF-CEM.
As for `CCN(CC)C(=S)SNCc1ccc(S(N)(=O)=O)cc1`, the GI50 in the experiment on HOP-62 is 15.4 µM (inactive); in the experiment on SK-MEL-28, 18.2 µM (inactive); with Malme-3M it was 15.3 µM (inactive); with NCI-H23, 19.3 µM (inactive); in the experiment on MDA-N it was 15.6 µM (inactive); in the experiment on LOX IMVI, 13.5 µM (inactive). The GI50 with IGROV-1 was 13.1 µM (inactive); in the experiment on HCT-15 it was 19.1 µM; with SW-620 it was 20 µM (inactive); in the experiment with SN12C, 15.5 µM (inactive); in the experiment on HL-60 it was 4.54 µM (inactive); in the experiment on HT-29 it was 8.47 µM (inactive). Moreover, the GI50 with SF-268 is 12.9 µM (inactive); in the experiment with NCI-H226, > 38.9 µM (inactive); in the experiment with RXF 393, 18.1 µM (inactive); in the experiment with SK-MEL-5 it was 13.5 µM (inactive); in the experiment with OVCAR-4, 18.7 µM (inactive).
Consider `O=Cc1ccc(-c2cc(C=O)c(-c3cccs3)[nH]2)s1`, for which the GI50 in the experiment with HOP-62 was 21.3 µM (inactive); with SK-MEL-28, 36.3 µM (inactive); in the experiment with Malme-3M, 46.7 µM (inactive); in the experiment on NCI-H23, 37 µM (inactive); in the experiment with MDA-N, 18.6 µM (inactive); in the experiment with LOX IMVI, 25.3 µM (inactive). In addition, the GI50 is 15.7 µM (inactive) in the experiment with IGROV-1; 24.8 µM with HCT-15; > 75 µM (inactive) in the experiment with SW-620; 53.6 µM (inactive) in the experiment on SN12C; 25.1 µM (inactive) in the experiment on HT-29; > 75 µM (inactive) in the experiment on SF-268. In addition, the GI50 was 4.76 µM (inactive) in the experiment on NCI-H226; 35.6 µM (inactive) in the experiment on RXF 393; 23 µM (inactive) in the experiment on SK-MEL-5; 20 µM (inactive) in the experiment with CCRF-CEM; 26 µM (inactive) with OVCAR-4.
